How the values were obtained:
[1] = target: T1, Sigma non-opioid intracellular receptor 1 (Homo sapiens, UniProt Q99720); assay: GPCRScan assay: inhibition of Sigma 1; design: radioligand conc. used [nm] 4.0 – 5.0, parental cells HEKT
[2] = system: Tyrosine-protein kinase ABL1 (Homo sapiens), P00519 [H396P]; conditions: Compound concentration 1000.0 nM
[3] = target: Dual specificity protein kinase CLK4 (Homo sapiens) (UniProt Q9HAZ1); conditions: Compound concentration 1000.0 nM
[4] = target: Casein kinase I isoform alpha (Homo sapiens) (UniProt P48729); conditions: Compound concentration 1000.0 nM
[5] = target: Dual specificity tyrosine-phosphorylation-regulated kinase 1A (Homo sapiens) (UniProt Q13627); conditions: Compound concentration 1000.0 nM
[6] = system: Epidermal growth factor receptor (Homo sapiens), P00533 [G719C]; conditions: Compound concentration 1000.0 nM
[7] = system: Fibroblast growth factor receptor 3 (Homo sapiens), P22607 [G697C]; conditions: Compound concentration 1000.0 nM
[8] = system: Receptor-type tyrosine-protein kinase FLT3 (Homo sapiens), P36888 [D835V]; conditions: Compound concentration 1000.0 nM
[9] = target: Serine/threonine-protein kinase haspin (Homo sapiens) (UniProt Q8TF76); conditions: Compound concentration 1000.0 nM
[10] = target: Tyrosine-protein kinase JAK3 (Homo sapiens) (UniProt P52333); conditions: Compound concentration 1000.0 nM
[11] = target: Mitogen-activated protein kinase 9 (Homo sapiens) (UniProt P45984); conditions: Compound concentration 1000.0 nM
[12] = target: Serine/threonine-protein kinase STK11 (Homo sapiens) (UniProt Q15831); conditions: Compound concentration 1000.0 nM
[13] = target: Dual specificity mitogen-activated protein kinase kinase 4 (Homo sapiens) (UniProt P45985); conditions: Compound concentration 1000.0 nM
[14] = target: Serine/threonine-protein kinase Nek11 (Homo sapiens) (UniProt Q8NG66); conditions: Compound concentration 1000.0 nM
[15] = target: Serine/threonine-protein kinase Nek6 (Homo sapiens) (UniProt Q9HC98); conditions: Compound concentration 1000.0 nM
[16] = target: Mitogen-activated protein kinase 12 (Homo sapiens) (UniProt P53778); conditions: Compound concentration 1000.0 nM
[17] = target: Serine/threonine-protein kinase PAK 4 (Homo sapiens) (UniProt O96013); conditions: Compound concentration 1000.0 nM
[18] = target: Serine/threonine-protein kinase PAK 6 (Homo sapiens) (UniProt Q9NQU5); conditions: Compound concentration 1000.0 nM
[19] = target: Cyclin-dependent kinase 2 homolog (Plasmodium falciparum (isolate 3D7)) (UniProt P61075); conditions: Compound concentration 1000.0 nM
[20] = system: Phosphatidylinositol 4,5-bisphosphate 3-kinase catalytic subunit alpha isoform (Homo sapiens), P42336 [E542K]; conditions: Compound concentration 1000.0 nM
[21] = target: cGMP-dependent protein kinase 2 (Homo sapiens) (UniProt Q13237); conditions: Compound concentration 1000.0 nM
[22] = target: Interferon-induced, double-stranded RNA-activated protein kinase (Homo sapiens) (UniProt P19525); conditions: Compound concentration 1000.0 nM
[23] = target: Proto-oncogene tyrosine-protein kinase receptor Ret (Homo sapiens) (UniProt P07949); conditions: Compound concentration 1000.0 nM
[24] = target: Serine/threonine-protein kinase RIO1 (Homo sapiens) (UniProt Q9BRS2); conditions: Compound concentration 1000.0 nM
[25] = target: Receptor-interacting serine/threonine-protein kinase 2 (Homo sapiens) (UniProt O43353); conditions: Compound concentration 1000.0 nM
[26] = target: Ribosomal protein S6 kinase alpha-1 (Homo sapiens) (UniProt Q15418); conditions: Compound concentration 1000.0 nM
[27] = target: Ribosomal protein S6 kinase alpha-3 (Homo sapiens) (UniProt P51812); conditions: Compound concentration 1000.0 nM
[28] = target: Serine/threonine-protein kinase SIK1 (Homo sapiens) (UniProt P57059); conditions: Compound concentration 1000.0 nM
[29] = target: Serine/threonine-protein kinase SIK2 (Homo sapiens) (UniProt Q9H0K1); conditions: Compound concentration 1000.0 nM
[30] = target: Serine/threonine-protein kinase tousled-like 1 (Homo sapiens) (UniProt Q9UKI8); conditions: Compound concentration 1000.0 nM
[31] = target: Serine/threonine-protein kinase tousled-like 2 (Homo sapiens) (UniProt Q86UE8); conditions: Compound concentration 1000.0 nM
[32] = target: Serine/threonine-protein kinase WNK4 (Homo sapiens) (UniProt Q96J92); conditions: Compound concentration 1000.0 nM
[33] = target: Mitogen-activated protein kinase kinase kinase 19 (Homo sapiens) (UniProt Q56UN5); conditions: Compound concentration 1000.0 nM
[34] = target: 5-hydroxytryptamine receptor 5A (Homo sapiens) (UniProt P47898); conditions: Compound concentration 10.0 uM
[35] = target: 5-hydroxytryptamine receptor 7 (Homo sapiens) (UniProt P34969); conditions: Compound concentration 10.0 uM
[36] = target: Beta-2 adrenergic receptor (Homo sapiens) (UniProt P07550); conditions: Compound concentration 10.0 uM
[37] = target: T2, Muscarinic acetylcholine receptor M2 (Homo sapiens) (UniProt P08172); conditions: Compound concentration 10.0 uM
T2 sequence (whole entry): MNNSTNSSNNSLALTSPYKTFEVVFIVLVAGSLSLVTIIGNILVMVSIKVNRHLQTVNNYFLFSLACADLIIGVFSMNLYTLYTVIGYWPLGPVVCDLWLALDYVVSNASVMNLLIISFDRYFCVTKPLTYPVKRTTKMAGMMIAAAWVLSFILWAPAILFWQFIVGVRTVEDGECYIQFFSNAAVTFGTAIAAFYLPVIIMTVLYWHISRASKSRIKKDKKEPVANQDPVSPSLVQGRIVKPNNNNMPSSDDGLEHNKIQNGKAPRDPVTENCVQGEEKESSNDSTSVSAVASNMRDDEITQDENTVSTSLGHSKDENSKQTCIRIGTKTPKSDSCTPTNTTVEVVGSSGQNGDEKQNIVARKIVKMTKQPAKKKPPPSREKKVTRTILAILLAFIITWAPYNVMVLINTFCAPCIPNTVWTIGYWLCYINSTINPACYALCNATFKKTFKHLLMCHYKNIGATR

[38] = target: T1, Sigma non-opioid intracellular receptor 1; conditions: Compound concentration 10.0 uM

T1 sequence (Q99720 whole entry): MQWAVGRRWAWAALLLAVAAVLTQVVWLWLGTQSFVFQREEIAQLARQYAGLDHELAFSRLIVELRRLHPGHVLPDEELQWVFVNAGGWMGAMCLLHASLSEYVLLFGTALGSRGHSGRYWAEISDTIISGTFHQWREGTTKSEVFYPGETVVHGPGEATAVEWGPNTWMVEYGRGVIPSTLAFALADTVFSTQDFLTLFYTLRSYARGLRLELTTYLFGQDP
Sequence of Serine/threonine-protein kinase Nek11 (Homo sapiens) (Q8NG66 whole entry): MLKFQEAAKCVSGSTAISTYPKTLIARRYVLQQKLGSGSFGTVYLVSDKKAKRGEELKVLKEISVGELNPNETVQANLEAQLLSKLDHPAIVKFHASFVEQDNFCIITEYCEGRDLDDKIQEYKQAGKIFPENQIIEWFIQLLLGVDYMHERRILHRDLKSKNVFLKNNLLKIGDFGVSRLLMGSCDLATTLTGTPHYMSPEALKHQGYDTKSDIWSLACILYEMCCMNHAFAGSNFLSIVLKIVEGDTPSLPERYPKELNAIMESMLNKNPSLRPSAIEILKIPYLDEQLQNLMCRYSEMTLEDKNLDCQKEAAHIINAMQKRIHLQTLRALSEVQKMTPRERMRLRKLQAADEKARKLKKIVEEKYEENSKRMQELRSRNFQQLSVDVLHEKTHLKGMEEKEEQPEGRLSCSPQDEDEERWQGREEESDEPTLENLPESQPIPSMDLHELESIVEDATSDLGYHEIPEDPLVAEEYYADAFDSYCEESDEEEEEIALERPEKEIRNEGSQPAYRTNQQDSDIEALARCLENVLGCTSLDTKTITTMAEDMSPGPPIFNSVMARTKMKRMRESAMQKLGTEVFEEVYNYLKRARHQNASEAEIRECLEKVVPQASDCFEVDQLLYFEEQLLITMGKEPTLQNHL
Sequence of Serine/threonine-protein kinase tousled-like 2 (Homo sapiens) (Q86UE8 whole entry, looked up): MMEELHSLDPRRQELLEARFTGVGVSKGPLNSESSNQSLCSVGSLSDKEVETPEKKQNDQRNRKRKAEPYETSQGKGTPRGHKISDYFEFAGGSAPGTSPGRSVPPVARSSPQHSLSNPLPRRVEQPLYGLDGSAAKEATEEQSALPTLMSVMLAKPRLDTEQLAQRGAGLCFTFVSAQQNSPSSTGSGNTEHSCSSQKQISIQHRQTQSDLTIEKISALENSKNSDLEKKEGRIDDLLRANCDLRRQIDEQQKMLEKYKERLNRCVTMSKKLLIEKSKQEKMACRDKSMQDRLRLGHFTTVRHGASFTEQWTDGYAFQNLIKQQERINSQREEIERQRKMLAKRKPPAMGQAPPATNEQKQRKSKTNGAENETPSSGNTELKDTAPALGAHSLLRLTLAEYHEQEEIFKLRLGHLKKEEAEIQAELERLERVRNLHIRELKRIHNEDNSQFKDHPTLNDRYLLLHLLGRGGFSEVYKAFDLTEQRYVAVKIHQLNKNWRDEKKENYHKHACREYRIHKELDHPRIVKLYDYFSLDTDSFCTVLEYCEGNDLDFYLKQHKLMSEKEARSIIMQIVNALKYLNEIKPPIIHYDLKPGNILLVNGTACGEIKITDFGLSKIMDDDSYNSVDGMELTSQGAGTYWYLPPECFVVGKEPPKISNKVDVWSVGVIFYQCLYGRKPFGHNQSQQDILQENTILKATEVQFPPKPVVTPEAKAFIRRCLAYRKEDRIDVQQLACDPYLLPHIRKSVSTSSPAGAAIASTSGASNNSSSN
Sequence of 5-hydroxytryptamine receptor 5A (Homo sapiens) (P47898 whole entry): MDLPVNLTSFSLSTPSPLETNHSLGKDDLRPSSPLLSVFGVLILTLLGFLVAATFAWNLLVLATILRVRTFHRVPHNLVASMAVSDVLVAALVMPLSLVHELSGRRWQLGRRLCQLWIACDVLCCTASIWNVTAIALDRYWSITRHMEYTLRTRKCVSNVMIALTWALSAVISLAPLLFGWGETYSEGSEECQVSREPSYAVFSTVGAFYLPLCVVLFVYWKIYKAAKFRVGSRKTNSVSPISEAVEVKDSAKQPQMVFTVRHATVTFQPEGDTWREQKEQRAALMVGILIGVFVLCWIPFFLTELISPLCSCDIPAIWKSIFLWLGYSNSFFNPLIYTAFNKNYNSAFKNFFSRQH
Sequence of Phosphatidylinositol 4,5-bisphosphate 3-kinase catalytic subunit alpha isoform (Homo sapiens), P42336 [E542K] (P42336 whole entry E542K, canonical isoform): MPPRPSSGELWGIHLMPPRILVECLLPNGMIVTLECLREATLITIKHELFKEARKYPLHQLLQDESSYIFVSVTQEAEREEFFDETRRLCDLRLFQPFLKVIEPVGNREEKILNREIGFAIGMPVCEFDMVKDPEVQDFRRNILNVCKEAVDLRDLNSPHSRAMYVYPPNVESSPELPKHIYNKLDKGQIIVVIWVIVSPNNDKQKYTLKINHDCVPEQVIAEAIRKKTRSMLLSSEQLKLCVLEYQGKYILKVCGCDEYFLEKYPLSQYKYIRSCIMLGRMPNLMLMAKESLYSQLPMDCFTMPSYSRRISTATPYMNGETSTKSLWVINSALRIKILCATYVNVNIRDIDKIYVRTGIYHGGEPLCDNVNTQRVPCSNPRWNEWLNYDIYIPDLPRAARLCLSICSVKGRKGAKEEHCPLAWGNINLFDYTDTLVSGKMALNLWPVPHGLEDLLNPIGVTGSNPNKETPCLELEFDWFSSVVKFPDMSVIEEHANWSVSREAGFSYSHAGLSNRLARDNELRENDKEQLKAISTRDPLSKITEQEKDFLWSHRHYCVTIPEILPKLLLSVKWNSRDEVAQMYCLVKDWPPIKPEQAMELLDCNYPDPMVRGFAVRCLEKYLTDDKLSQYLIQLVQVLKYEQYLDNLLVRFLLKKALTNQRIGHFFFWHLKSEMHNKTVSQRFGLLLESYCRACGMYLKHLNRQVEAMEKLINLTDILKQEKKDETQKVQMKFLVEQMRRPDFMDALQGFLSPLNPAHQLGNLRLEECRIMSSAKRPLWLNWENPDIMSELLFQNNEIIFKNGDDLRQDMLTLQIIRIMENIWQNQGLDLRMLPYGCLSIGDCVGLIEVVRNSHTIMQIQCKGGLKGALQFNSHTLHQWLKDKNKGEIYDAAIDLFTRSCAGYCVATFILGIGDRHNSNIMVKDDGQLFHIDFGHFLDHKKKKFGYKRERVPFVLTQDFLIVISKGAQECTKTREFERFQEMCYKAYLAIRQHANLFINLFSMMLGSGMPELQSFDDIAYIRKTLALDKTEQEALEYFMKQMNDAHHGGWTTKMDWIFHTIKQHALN
Sequence of Interferon-induced, double-stranded RNA-activated protein kinase (Homo sapiens) (P19525 whole entry): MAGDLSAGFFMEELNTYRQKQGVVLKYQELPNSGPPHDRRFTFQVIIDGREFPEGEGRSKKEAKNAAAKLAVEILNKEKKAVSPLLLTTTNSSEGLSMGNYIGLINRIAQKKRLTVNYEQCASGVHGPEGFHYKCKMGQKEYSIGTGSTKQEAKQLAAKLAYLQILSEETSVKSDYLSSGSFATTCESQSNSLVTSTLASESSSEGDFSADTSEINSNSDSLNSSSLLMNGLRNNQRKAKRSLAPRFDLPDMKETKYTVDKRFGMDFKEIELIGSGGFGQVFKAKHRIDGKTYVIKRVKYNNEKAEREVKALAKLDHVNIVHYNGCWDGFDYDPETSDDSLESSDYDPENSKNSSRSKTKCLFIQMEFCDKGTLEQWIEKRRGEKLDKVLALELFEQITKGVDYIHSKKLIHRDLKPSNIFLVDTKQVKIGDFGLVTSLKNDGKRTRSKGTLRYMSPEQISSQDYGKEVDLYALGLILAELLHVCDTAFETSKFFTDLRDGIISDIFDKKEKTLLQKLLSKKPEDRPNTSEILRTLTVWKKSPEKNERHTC
Sequence of Serine/threonine-protein kinase tousled-like 1 (Homo sapiens) (Q9UKI8 whole entry): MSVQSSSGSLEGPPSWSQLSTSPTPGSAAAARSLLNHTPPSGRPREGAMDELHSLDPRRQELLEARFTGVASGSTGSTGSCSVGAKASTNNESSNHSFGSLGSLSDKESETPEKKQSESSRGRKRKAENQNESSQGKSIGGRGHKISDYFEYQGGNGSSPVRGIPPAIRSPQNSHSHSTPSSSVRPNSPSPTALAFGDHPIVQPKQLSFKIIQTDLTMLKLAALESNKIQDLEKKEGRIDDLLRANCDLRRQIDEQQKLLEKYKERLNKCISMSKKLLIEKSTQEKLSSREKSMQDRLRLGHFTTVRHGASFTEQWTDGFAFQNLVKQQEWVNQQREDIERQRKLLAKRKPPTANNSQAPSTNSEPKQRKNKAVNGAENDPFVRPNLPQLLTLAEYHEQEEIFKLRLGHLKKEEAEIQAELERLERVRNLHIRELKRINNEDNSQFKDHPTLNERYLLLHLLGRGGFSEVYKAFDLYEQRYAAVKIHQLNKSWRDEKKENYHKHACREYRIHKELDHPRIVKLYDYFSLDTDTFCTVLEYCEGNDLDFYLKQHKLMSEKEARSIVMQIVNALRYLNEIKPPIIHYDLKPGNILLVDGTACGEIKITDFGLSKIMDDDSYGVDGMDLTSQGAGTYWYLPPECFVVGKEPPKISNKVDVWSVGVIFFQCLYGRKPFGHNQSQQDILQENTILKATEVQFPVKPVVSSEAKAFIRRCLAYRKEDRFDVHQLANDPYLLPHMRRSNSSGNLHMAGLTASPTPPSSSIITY
Sequence of Dual specificity mitogen-activated protein kinase kinase 4 (Homo sapiens) (P45985 whole entry): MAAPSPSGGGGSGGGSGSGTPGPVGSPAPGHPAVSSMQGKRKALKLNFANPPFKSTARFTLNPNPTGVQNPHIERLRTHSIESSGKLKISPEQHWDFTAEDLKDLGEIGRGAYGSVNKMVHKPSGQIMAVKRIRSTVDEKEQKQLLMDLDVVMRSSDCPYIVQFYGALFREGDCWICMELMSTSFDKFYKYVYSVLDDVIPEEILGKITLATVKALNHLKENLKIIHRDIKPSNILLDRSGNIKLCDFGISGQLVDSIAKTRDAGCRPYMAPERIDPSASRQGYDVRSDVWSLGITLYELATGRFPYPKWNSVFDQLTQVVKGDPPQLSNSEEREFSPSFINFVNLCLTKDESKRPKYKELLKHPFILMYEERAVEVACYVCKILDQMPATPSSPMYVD

Compound | Ki ([1]; read-out: Ki) [µM] | residual activity [2] [%] | residual activity [3] [%] | residual activity [4] [%] | residual activity [5] [%] | residual activity [6] [%] | residual activity [7] [%] | residual activity [8] [%] | residual activity [9] [%] | residual activity [10] [%] | residual activity [11] [%] | residual activity [12] [%] | residual activity [13] [%] | residual activity [14] [%] | residual activity [15] [%] | residual activity [16] [%] | residual activity [17] [%] | residual activity [18] [%] | residual activity [19] [%] | residual activity [20] [%] | other results
CCC(=N\O)/C(C)=C/c1ccc(F)c(C)c1 [A-226] | 0.529 | 100 | 97 | 100 | 100 | 83 | 87 | 100 | 100 | 94 | 100 | 100 | 100 | 100 | 99 | 88 | 76 | 100 | 100 | 54 | residual activity [21]: 97%; residual activity [22]: 100%; residual activity [23]: 100%; residual activity [24]: 100%; residual activity [25]: 65%; residual activity [26]: 96%; residual activity [27]: 100%; residual activity [28]: 96%; residual activity [29]: 100%; residual activity [30]: 100%; residual activity [31]: 100%; residual activity [32]: 78%; residual activity [33]: 98%; inhibition [34]: -3.24%; inhibition [35]: -0.42%; inhibition [36]: -1.29%; inhibition [37]: 14.3%; inhibition [38]: 86.8%
CCC(=N\O)/C(C)=C/c1ccc(F)cc1 [A-079] | 0.505 | 72 | 100 | 74 | 91 | 64 | 84 | 100 | 65 | 80 | 92 | 100 | 75 | 100 | 87 | 100 | 100 | 100 | 84 | 100 | Ki ([1]; read-out: pKi (converted)): 0.457 µM; residual activity [21]: 79%; residual activity [22]: 100%; residual activity [23]: 100%; residual activity [24]: 80%; residual activity [25]: 91%; residual activity [26]: 100%; residual activity [27]: 81%; residual activity [28]: 80%; residual activity [29]: 100%; residual activity [30]: 100%; residual activity [31]: 100%; residual activity [32]: 100%; residual activity [33]: 66%; inhibition [34]: 3.01%; inhibition [35]: 8.18%; inhibition [36]: 6.61%; inhibition [37]: 9.31%; inhibition [38]: 84%
